Values of other authors as cited in US10507205B2, “Methods of treating opiate dependency and preventing non-oral opiate abuse among opiate addicts” (PURDUE PHARMACEUTICAL PRODUCTS L.P., priority 2006, dated 2019).

Details: pronounced first-pass metabolism, 'sometimes less than 5%'

SMILES: C=CCN1CCC23c4c5ccc(O)c4OC2C(=O)CCC3(O)C1C5 (stereo not shown) [naloxone, Naloxone]
- bioavailability of orally administered naloxone: less than 5%
